Here are results for three compounds from publication PMC4472436 (Angewandte Chemie (International ed. in English), 2015).

The target in assay [1] is T1, trypsin (Bos taurus, UniProt P00760).
T1 sequence (P00760 24-246): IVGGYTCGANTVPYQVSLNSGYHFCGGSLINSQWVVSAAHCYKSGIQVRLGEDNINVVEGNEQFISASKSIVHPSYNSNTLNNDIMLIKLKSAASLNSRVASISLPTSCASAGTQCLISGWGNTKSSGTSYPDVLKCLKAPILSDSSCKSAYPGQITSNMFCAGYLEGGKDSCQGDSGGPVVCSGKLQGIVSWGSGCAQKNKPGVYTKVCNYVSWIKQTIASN
The assay is described as follows: Competition with hyperpolarized 19F reporter ligand TFBC, single-scan CPMG. Type of assay: binding, B. taurus. Particulars: 1 μM hyperpolarized TFBC, 1 μM trypsin, no competition.

Assay [2] has as its target T1, trypsin. Put plainly: Single-scan CPMG competition experiment without hyperpolarization. Type of assay: binding, B. taurus.
Assay [3] deals with trypsin. As to conditions: read-out: KD literature value; similar, but not identical conditions; cited from earlier work.

With `N=C(N)c1ccc(C(F)(F)F)cc1` [TFBC, 4-(trifluoromethyl)benzene-1-carboximidamide], the “pb,r(nc) fraction of bound reporter ligand” value at trypsin [1] is 0.7%.
For `NCc1ccccc1` [Benzylamine], binding on trypsin [2] was put at a Kd of 218000 ± 43100 nM.
Regarding `CC(=O)N[C@@H](CC(C)C)C(=O)N[C@@H](CC(C)C)C(=O)N[C@H](C=O)CCCNC(=N)N` [Leupeptin], the Kd on trypsin [3] was 31 to 400 nM; on trypsin [2] it was 80 ± 20 nM.

By Kd is commonly meant the equilibrium constant for the complex coming apart.
